In patent US20050208058A1, “Compositions and methods for modulating cell division” (priority 2003, published 2005):
d = 2'-deoxy (DNA)

Assays:
Format in all cases: cell-based, human
RPE cells [1] = assay: BrDU incorporation after siRNA treatment and nocodazole synchronization; details: relative to control cells (siRNA to lamin), after nocodazole release; FIG. 2A
Procedure: (§1) To further study the effects of silencing centrosomal genes, the following cell cycle experiments were performed using RPE cells. In immunofluorescence experiments, cells were delivered by OLIGOFECTAMINE in a media solution containing between 1-100 nanomolar concentration of siRNAs. After 4 hours of incubation with lipofectamine, cells were washed, and cell cycle progression was assayed by (i) treating cells with 5-Bromo-2′-deoxyuridine (BrDU from Sigma, St Louis, Mo.) for 24 hours and staining for BrDU or (ii) staining cells with antibody to Ki-67 (BD Biosciences) according to manufacturer's instructions. BrDU treatment and staining were performed as follows: after 50-70 hours incubation with siRNA, BrDU was added to cells at a final concentration of 5 μg/ml. Cells were fixed in −20° C. methanol and then treated with 2N HCL at 22° C. for 30 minutes, incubated with 1:500 mouse anti-BrdU antibody (Becton Dickinson, Palo Alto, Calif.), and labeled with 1:1,000 goat FITC-mouse antibody (Molecular Probes, Inc.). Cells were also treated with 4′,6-diamidino-2-phenylindole (DAPI) (Molecular Probes) according to the manufacturer's instructions. Cells were prepared, imaged, and the resulting images were deconvolved as described in Example 1.
Upon release from nocodazole treatment, proliferating cells typically resume cell cycle progression. Chromosomal DNA in the cells was imaged using DAPI (faint ghost-like staining) and/or BrDU (brighter staining). Although DAPI can be used to visualize DNA at any stage of the cell cycle, BrDU is only incorporated into newly synthesized DNA only during S-phase. Thus, BrDU incorporation can be used as a marker of cells that progress through at least one S-phase of the cell cycle. Control cells in this experiment were treated with siRNA to lamin.

RPE cells [2] = assay: Flow cytometry (FACS) of nocodazole-induced shift from G1 to G2/M peak after siRNA treatment
Procedure: (§2) For flow cytometry (i.e., fluorescence-activated cell sorter or FACS) experiments, siRNAs were delivered to cells as described above, and were incubated for 50-70 hours. To synchronize cells, nocodazole was added to the cells to a concentration of 5 μg/mL for 12 hours. Cells were stained with propidium iodide and analyzed by flow cytometry (FACSCAN; Becton Dickinson) using FLOJO® software (Tree Star, Inc., Ashland, Oreg.).
In another approach to evaluating the effect requirement for centrosomal gene products, fluorescence assisted cell sorting (flow cytometry or FACS) analysis was performed as described in Gromley et al., J. Cell Biol., 161:535-545 (2003). Briefly, cells were treated with indicated siRNA for at least 50-70 hours, unless otherwise indicated. Cells were synchronized by adding nocodazole to 5 μg/mL for 12 hours prior to cell collection. Cells were collected, fixed in methanol, stained with propidium iodide, and analyzed by flow cytometry (FACSCAN®;Becton Dickinson) using FLOJO® software (Tree Star, Inc.).
FIG. 3A is a graph showing the effects of depleting the indicated centrosomal gene products by siRNA treatment. The left side of the graph depicts the FACS results for treated cells before the addition of nocodazole (-noc). The major fluorescence peak in (-noc) cells is the G1 peak, (i.e., lower DNA fluorescence). The right side of the graph depicts the results for cells after nocodazole treatment (+noc). […] This may be due to inefficient silencing caused by the siRNAs used.
The ability of a number of centrosomal genes to inhibit cell cycling of RPE1 cells was tested by treating cells with siRNAs and performing FACS analysis as described in Example 2.

RPE cells [3] = assay: FACS of cells treated in tandem with two siRNAs (p53 dependence); details: tandem treatment silamin then siGCP2; FIG. 6A
Procedure: as §2
(§3) A number of experiments were conducted to determine if p53 is required for the cell cycle arrest phenotype described herein. FACS analysis of tandem siRNA-treated cells was performed as described in Example 2. BrDU and DAPI imaging was performed as described in Example 2. Intracellular p53 was visualized using anti-p53 antibody that is specific for activated p53 (i.e., p53 phosphorylated at Serine 33) (“α-Pser33-p53” provided by Yoichi Taya and described in Kishis et al., J. Biol. Chem., 276:39115-3922, 2001)
In FIG. 6A each line tracing represents FACS data from cells treated in tandem with the siRNAs directed to the gene products indicated above the line. Cells were first treated with siRNA directed to the gene product to the left of the slash. Up to 24 hours later, siRNA directed to the gene product to the right of the slash was added. […] 12 hours before collecting the cells, nocodazole was added to the cells analyzed in the bottom three line tracings. […]

RPE cells [4] = assay: BrDU staining of cells treated in tandem with two siRNAs (p53 dependence); details: tandem treatment silaminin then indicated siRNA, vs silamin/silamin; FIG. 6B
Procedure: as §1, §3

UCUCGUACUCCAGAAGACU (siRNA; RNA, 3' dTdT, backbone not given here) [siGCP2, siRNA directed to GCP2]
incorporation of BrDU into chromosomal material (RPE cells [1]): clearly inhibited incorporation of BrDU
block of nocodazole-induced shift to G2/M peak at 72 hours (RPE cells [2]; 72 hours of siRNA treatment, FIG. 3B): effectively blocked the nocodazole-induced shift
inhibition of nocodazole-induced shift from G1 peak to G2/M peak (RPE cells [2]; siRNA 50-70 hours, nocodazole 5 μg/mL 12 hours, FIG. 3A, FIG. 8): prevented nocodazole-induced shift
duration of block of nocodazole shift (RPE cells [2]; time course, FIG. 3B): at least 244 hours
time of siRNA treatment before prevention of the nocodazole shift occurs (RPE cells [2]; time course, FIG. 3B): > 48 h
nocodazole shift from G1 peak to G2/M peak (RPE cells [3]): blocked
cells incorporating BrDU (RPE cells [4]): substantially fewer
